Where two headings read alike, the source gives them in different places.
Experiments:
A2B adenosine receptor = target: T1, A2B adenosine receptor (Homo sapiens, UniProt P29275); experiment: Binding affinity to adenosine A2B receptor
T1 sequence (P29275 1-332): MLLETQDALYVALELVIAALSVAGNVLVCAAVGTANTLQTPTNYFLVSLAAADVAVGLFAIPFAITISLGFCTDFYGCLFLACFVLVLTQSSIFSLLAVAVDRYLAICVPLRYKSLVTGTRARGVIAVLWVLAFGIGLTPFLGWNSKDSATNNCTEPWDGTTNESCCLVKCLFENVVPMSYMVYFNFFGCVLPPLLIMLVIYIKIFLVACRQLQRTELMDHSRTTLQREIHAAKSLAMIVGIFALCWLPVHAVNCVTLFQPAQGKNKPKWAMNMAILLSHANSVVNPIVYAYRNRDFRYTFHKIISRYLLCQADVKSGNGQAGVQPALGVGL

liver [1] = experiment: Serum levels of liver enzymes ALT and AST after partial hepatectomy with ischemia/reperfusion; assay type: in vivo, rat
[2] = Human studies with orally-administered Cl-IB-MECA, plasma half life; assay type: in vivo; conditions: oral administration, read-out: half life in human plasma from peak concentration
Source text: An effective amount of an active agent may also be determined based on human PK studies. […] On the basis of said human trials twice daily administration appears to be a preferred administration regiment. […] On the basis of this human data, the administration regiment in human subjects may preferably be once or twice daily although other regiments cannot be excluded.

hepatocytes [3] = experiment: PCNA staining of hepatocytes after partial hepatectomy; assay type: in vivo, rat; conditions: rats, 48 hours after partial hepatectomy; FIG. 5B
hepatocytes [4] = experiment: Hepatocyte proliferation of regenerated liver after partial hepatectomy; assay type: in vivo, rat; conditions: rats, 70% hepatectomy, 100 μg/kg orally TID; control group 30%; FIG. 1
liver [5] = experiment: Liver regeneration (liver weight) after partial hepatectomy; assay type: in vivo, rat; conditions: rats, 24 and 48 hours after partial hepatectomy; FIG. 6
Method: Male Wistar rats (275-300 g) were fasted 12 h before the procedure. The rats were anaesthetized with Ketamin (45 mg/kg) and Xylazine (5 mg/kg). Laparatomy was performed via a sub costal, bilateral incision. The main portal pedicle to the total liver was clamped for a period of 10 minutes, during which, a 70% hepatectomy was performed. After 10 minutes of ischemia (in the course of the hepatectomy), blood flow was restored by de-clamping.
Rats underwent laparatomy and the main portal pedicle to the total liver was clamped for a period of 10 minutes, during which a 70% hepatectomy was performed. After 10 minutes of ischemia blood flow was restored by de-clamping.
Livers were collected 24 and 48 hours after the partial […]. The growth of residual liver lobes was assessed using the following equation: […]
A is the estimated total liver weight before hepatectomy (3.4% of a rat's total weight),
B is the weight of liver resected during the hepatectomy, and
C is the weight of the regenerated liver at the end of the study.

[6] = mice; cited from earlier work
[7] = oral administration; cited from earlier work

Row | Compound | IC50 (A2B adenosine receptor) | Ki (A2B adenosine receptor) | ALT serum level vs control group (liver [1]; rats, 2, 4 and 48 hours after partial hepatectomy, 100 μg/kg orally TID, FIG. 2A) | AST serum level vs control group (liver [1]; rats, 2, 4 and 48 hours after partial hepatectomy, 100 μg/kg orally TID, FIG. 2B) | serum levels of liver enzymes (AST and ALT) vs vehicle and untreated rats (liver [1]; rats, partial hepatectomy, further assay, FIG. 3) | half-life [2] [h] | number of PCNA positive hepatocytes vs vehicle (hepatocytes [3]) | level of regeneration (hepatocyte proliferation) (hepatocytes [4]) [%] | liver weight (% of regeneration) vs vehicle (liver [5]) | IC50 (A2B adenosine receptor; read-out: IC50) [µM] | Ki (A2B adenosine receptor; read-out: Ki) [µM] | half life [6] [h] | half life in human plasma from peak concentration [7] [h]
1 | CNC(=O)[C@H]1O[C@@H](n2cnc3c(NCc4cccc(I)c4)nc(Cl)nc32)[C@H](O)[C@@H]1O [Cl-IB-MECA, 2-chloro-N^6-(3-iodobenzyl)-adenosine-5′-N-methyl-uronamide] | No activity | No activity | significantly decreased | significantly decreased | reduction | 12 to 14 | significantly increased | 45.1 | increase |  |  |  | 
2 | CNC(=O)[C@H]1O[C@@H](n2cnc3c(NCc4cccc(I)c4)ncnc32)[C@H](O)[C@@H]1O [IB-MECA, 1-deoxy-1-{6-[({3-iodophenyl}methyl)amino]-9H-purine-9-yl}-N-methyl-β-D-ribofuranuronamide] |  |  |  |  |  |  |  |  |  | 47.6 | 42.3 | 1.5 | 8 to 10
